According to article PMC10643403, “Targeting the Schistosoma mansoni nutritional mechanisms to design new antischistosomal compounds” (Scientific Reports, 2023):
In brackets after ≈: the same amount, converted by molar mass. Like-named read-outs stand apart in the source and are kept apart here.

How the values were obtained:
[1] = tested on: S. mansoni adult worms; assay: In vitro antischistosomal assay on adult worms; format: cell-based, Schistosoma mansoni; details: for EC50: Schistosoma mansoni, based on mortality, after 72 h, 95% confidence interval in square brackets
Description: The antischistosomal assay was performed according to the methodology previously described[16],[19],[20]. Briefly, […], were incubated in flat bottom 24-well plates (Corning, New York, NY, USA) in RPMI 1640 culture medium (Vitrocell, Campinas, SP, Brazil) supplemented with 5% inactivated fetal calf serum, antibiotics (100 U/mL penicillin and 100 μg/mL streptomycin), and buffered with HEPES 25 mM (Sigma-Aldrich, St. Louis, MO, USA). Compounds were dissolved in dimethyl sulfoxide (DMSO at a final concentration of 0.5% v/v) and tested at 50 μM using PZQ 2 μM and DMSO 0.5% as positive and negative controls, respectively. Parasites were kept for 72 h (37 °C, 5% CO2, Panasonic, Osaka, Japan) and their viability was assessed using a Motic AE2000 inverted microscope (Vancouver, Canada)[21]. Each experiment was performed in triplicate and repeated at least three times. The negative control (using the highest concentration of DMSO, i.e., 0.5) and positive control (praziquantel 2 µM) were included.
Each concentration was tested in five replicates, and experiments were repeated once.

[2] = In vitro cytotoxicity assay (MTT) on Vero cells; format: cell-based, African green monkey; details: African green monkey, Vero cells (ATCC CCL-81); Vero cells; MTT assay; 72 h; read-out: Mammalian cells CC50
Description: (§1) The life cycle of S. mansoni (Belo Horizonte strain) is maintained through routine passage through Biomphalaria glabrata snails and Swiss mice at the Research Center on Neglected Diseases (Guarulhos University, SP, Brazil). Both rodents and snails were kept under environmentally controlled conditions (25 °C; humidity of 50%), with free access to food and water. Vero cells were obtained from the American Type Culture Collection (ATCC CCL-81; Manassas, VA, USA). Cells were routinely cultured in Dulbecco’s Modified Eagle Medium (DMEM) supplemented with 5% heat-inactivated fetal bovine serum and antibiotics (100 U/mL penicillin and 100 μg/mL streptomycin) at 37 °C in a humidified atmosphere containing 5% CO2 [17].
(§2) The cytotoxicity of the compounds on the Vero cells was determined by thiazolyl blue tetrazolium bromide (MTT) assay (Sigma-Aldrich) as previously described[21],[24]. […] After 72 h, MTT solution was added to each well and the absorbance at 595 nm was read on a spectrophotometer (Epoch, BioTek Instruments, Winooski, VT, USA).

[3] = tested on: Vero cells; assay: In vitro cytotoxicity assay (MTT) on Vero cells; format: cell-based, African green monkey; details: CC50 on Vero cells divided by EC50 on schistosomes (based on the highest concentration)
Description: as §1, §2

[4] = tested on: S. mansoni-infected mice; assay: In vivo antiparasitic study in an animal model of schistosomiasis; details: 400 mg/kg single oral dose, vs infected untreated control
Description: In vivo studies in S. mansoni-infected mice were performed according to standard protocols[20],[26]. Rodents (3 weeks old) were infected subcutaneously with 80 S. mansoni cercariae each and animals were randomly divided into experimental groups (five mice per group). Compounds were dissolved in 2% ethanol in water (v/v) and tested at a single oral dose (400 mg/kg) administered 42 days post-infection[27]. For comparison, praziquantel (400 mg/kg) and a corresponding amount of vehicle were administered to groups of five schistosomes-infected animals in the same period[28],[29]. […] The percentage of worm and egg reduction was calculated by means of the following equation: % reduction = [(value of untreated control group − value of treatment group)/value of untreated control group] × 100%[32]. The nonparametric Kruskal–Wallis test was used to compare the medians of the responses between the treatment and control groups using the GraphPad Prism software (version 8.0; CA, USA). Differences were considered statistically significant at P < 0.05[9].

[5] = tested on: Caenorhabditis elegans; format: in vivo; details: L4 stage, 24 h
Description: Caenorhabditis elegans wild-type (N2 strain), kindly provided by Dr. Carlos E. Winter (University of São Paulo), was routinely cultured at 22 °C on nematode growth medium (NGM) plates seeded with Escherichia coli (strain OP50) as a food source according to standard protocols.
For the drug assessment, the age-synchronized L1 stage was cultivated on standard NGM plates. When at the L4 stage, approximately 25 nematodes were transferred to each well of a 96-wells NGM plates containing the drug of interest at the desired concentration (10, 25, 50, 100, and 200 μM) along with a positive control (levamisole 10 μM) and a negative control (DMSO 0.5%). Nematodes were kept at 22 °C for 24 h, and their viability was verified microscopically using a Motic AE2000 inverted microscope (Vancouver, Canada) equipped with an ultra-high definition (UHD) camera and with a 48-inch 4K-UHD monitor system (LG Electronics, São Paulo, Brazil)[33].

[6] = tested on: Schistosoma mansoni worms; parameters: method as in ref 1 (Santiago et al.); details: after 144 h; target not determined; ref 1 (Santiago et al.); cited from earlier work

| SMILES | Activity against 49-day-old S. mansoni worms at 50 µM ([1]; 50 µM, adult worms, initial in vitro trial, 72 h) | EC50 ([1]; female adult worms, read-out: S. mansoni EC50 Female) | EC50 ([1]; male adult worms, read-out: S. mansoni EC50 Male) | CC50 at 72 h [2] | SI (selectivity index) [3] | Reduction in worm burden ([4]; 42 days post-infection) | Reduction in eggs found in feces ([4]; Kato-Katz technique) | Reduction in immature eggs found in the intestines ([4]; oogram) | Survival percentage of C. elegans ([5]; 10 μM) | Survival percentage of C. elegans ([5]; 25 μM) | Survival percentage of C. elegans ([5]; 50 μM) | Survival percentage of C. elegans ([5]; 100 μM) | Survival percentage of C. elegans ([5]; 200 μM) | IC50 (worm motility, pairing, oviposition study) [6] |
| --- | --- | --- | --- | --- | --- | --- | --- | --- | --- | --- | --- | --- | --- | --- |
| Clc1ccc2c(N/N=C/c3cccs3)ccnc2c1 [GPQF-8Q8, 7-Chloro-4-[(2E)-2-(thiophen-2-ylmethylidene)hydrazinyl]quinoline] | Active | 28.5 µM | 35.8 µM | > 200 µM | > 5.6 | 50.8% | 52.8% | 45.8% | 100% | 100% | 100% | 100% | 100% | – |
| COc1ccc(-c2cnc(N/N=C/N3C(=O)c4ccccc4C3=O)s2)cc1 [LpQM-45] | – | – | – | – | – | – | – | – | – | – | – | – | – | 32.09 µg/mL (≈ 84.8 µM) |
